Assay results from patent US12384808B2, “Modulators of TNF-α activity” (Forward Therapeutics, Inc., priority 2022, dated 2025).

Biological target: TNFα (Homo sapiens, UniProt P01375)
Test: TNFα Induced HEK Blue Cellular Assay
Assay type: cell-based
Details: HEK Blue TNFα reporter cells, TNFα 100 pg/ml, 24 hrs at 37° C., secreted alkaline phosphatase (QUANTI-Blue) read at 620 nm; read-out: IC50 value
Summary of the method: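 IC50 fitted with a 4-parameter logistic model from % inhibition, normalised to DMSO controls with and without stimulation. Readout: QUANTI-Blue SEAP at 620 nm after 24 h, 37 °C exposure to TNFα (100 pg/ml final) and test compound at […]–0.5 nM final.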

Chain of TNFα (P01375 77-233 limits assumed): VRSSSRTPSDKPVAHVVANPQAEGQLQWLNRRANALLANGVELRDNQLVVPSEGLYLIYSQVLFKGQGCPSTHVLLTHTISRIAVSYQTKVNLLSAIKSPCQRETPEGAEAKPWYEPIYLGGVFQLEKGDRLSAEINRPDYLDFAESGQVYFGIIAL

IC50 [nM]	SMILES
< 100	[2H]C([2H])([2H])N1C(=O)c2cccc(OC(F)F)c2[C@H]2C[C@@H]1c1nc3ccc(-c4c(F)cc(P(C)(C)=O)cc4F)cc3n12 [Example 63, (7R,14R)-1-(difluoromethoxy)-11-(4-(dimethylphosphoryl)-2,6-difluorophenyl)-6-(methyl-d3)-6,7-dihydro-7,14-methanobenzo[f]benzo[4,5]imidazo[1,2-a][1,4]diazocin-5(14H)-one]
100 to 1000	CN1C(=O)c2cccc(OC(F)F)c2[C@H]2C[C@@H]1c1nc3ccc(-c4cnn(CP(C)(C)=O)c4)cc3n12 [Example 21, (1R,11R)-18-(difluoromethoxy)-5-{1-[(dimethylphosphoryl)methyl]pyrazol-4-yl}-12-methyl-2,9,12-triazapentacyclo[9.8.1.0^{2,10}.0^{3,8}.0^{14,19}]icosa-3(8),4,6,9,14(19),15,17-heptaen-13-one]
< 100	[2H]C([2H])([2H])N1C(=O)c2cccc(OC(F)F)c2[C@H]2C[C@@H]1c1nc3ccc(-c4cc(C)c(P(C)(C)=O)c(F)n4)cc3n12 [Example 132, (7R,14R)-1-(difluoromethoxy)-11-(5-(dimethylphosphoryl)-6-fluoro-4-methylpyridin-2-yl)-6-(methyl-d3)-6,7-dihydro-7,14-methanobenzo[f]benzo[4,5]imidazo[1,2-a][1,4]diazocin-5(14H)-one]
< 100	[2H]C([2H])([2H])N1C(=O)c2cccc(OC(F)F)c2[C@H]2C[C@@H]1c1nc3ccc(-c4ccc(C(C)P(C)(C)=O)c(F)c4)cc3n12 (single isomer, unassigned) [Example 99, (7R,14R)-1-(difluoromethoxy)-11-(4-((S or R)-1-(dimethylphosphoryl)ethyl)-3-fluorophenyl)-6-(methyl-d3)-6,7-dihydro-7,14-methanobenzo[f]benzo[4,5]imidazo[1,2-a][1,4]diazocin-5(14H)-one]
< 100	[2H]C([2H])([2H])N1C(=O)c2cccc(OC(F)F)c2[C@H]2C[C@@H]1c1nc3ccc(-c4ccc(NCP(C)(C)=O)nc4)cc3n12 [Example 98, (7R,14R)-1-(difluoromethoxy)-11-(6-(((dimethylphosphoryl)methyl)amino)pyridin-3-yl)-6-(methyl-d3)-6,7-dihydro-7,14-methanobenzo[f]benzo[4,5]imidazo[1,2-a][1,4]diazocin-5(14H)-one]
< 100	[2H]C([2H])([2H])N1C(=O)c2cccc(OC(F)F)c2[C@H]2C[C@@H]1c1nc3ccc(-c4ccc(P(C)(C)=O)nc4C)cc3n12 [Example 91, (7R,14R)-1-(difluoromethoxy)-11-(6-(dimethylphosphoryl)-2-methylpyridin-3-yl)-6-(methyl-d3)-6,7-dihydro-7,14-methanobenzo[f]benzo[4,5]imidazo[1,2-a][1,4]diazocin-5(14H)-one]
< 100	[2H]C([2H])([2H])N1C(=O)c2cccc(OC(F)F)c2[C@H]2C[C@@H]1c1nc3ccc(-c4ccc(C(O)P(C)(C)=O)cc4)cc3n12 (stereo partly drawn) [Example 84, (7R,14R)-1-(difluoromethoxy)-11-(4-((dimethylphosphoryl)(hydroxy)methyl)phenyl)-6-(methyl-d3)-6,7-dihydro-7,14-methanobenzo[f]benzo[4,5]imidazo[1,2-a][1,4]diazocin-5(14H)-one]
< 100	CN1C(=O)c2cccc(OC(F)F)c2[C@H]2C[C@@H]1c1nc3ccc(-c4c(F)cc(P(C)(C)=O)cc4F)cc3n12 [Example 62, (1R,11R)-18-(difluoromethoxy)-5-[4-(dimethylphosphoryl)-2,6-difluorophenyl]-12-methyl-2,9,12-triazapentacyclo[9.8.1.0^{2,10}.0^{3,8}.0^{14,19}]icosa-3(8),4,6,9,14(19),15,17-heptaen-13-one]
< 100	CN1C(=O)c2cccc(OC(F)F)c2[C@H]2C[C@@H]1c1nc3ccc(-c4ccc(P(C)(C)=O)c(F)c4)cc3n12 [Example 14, (1R,11R)-18-(difluoromethoxy)-5-[4-(dimethylphosphoryl)-3-fluorophenyl]-12-methyl-2,9,12-triazapentacyclo[9.8.1.0^{2,10}.0^{3,8}.0^{14,19}]icosa-3(8),4,6,9,14(19),15,17-heptaen-13-one]
< 100	CN1C(=O)c2cccc(OC(F)F)c2[C@H]2C[C@@H]1c1nc3ccc(-c4ccc(OCP(C)(C)=O)cc4)cc3n12 [Example 38, (1R,11R)-18-(difluoromethoxy)-5-{4-[(dimethylphosphoryl)methoxy]phenyl}-12-methyl-2,9,12-triazapentacyclo[9.8.1.0^{2,10}.0^{3,8}.0^{14,19}]icosa-3(8),4,6,9,14(19),15,17-heptaen-13-one]
< 100	[2H]C([2H])([2H])N1C(=O)c2cccc(OC(F)F)c2[C@H]2C[C@@H]1c1nc3ccc(-c4ccc(C(C)P(C)(C)=O)c(F)c4)cc3n12 (single isomer, unassigned) [Example 100, (7R,14R)-1-(difluoromethoxy)-11-(4-((R or S)-1-(dimethylphosphoryl)ethyl)-3-fluorophenyl)-6-(methyl-d3)-6,7-dihydro-7,14-methanobenzo[f]benzo[4,5]imidazo[1,2-a][1,4]diazocin-5(14H)-one]
< 100	[2H]C([2H])([2H])N1C(=O)c2cccc(OC(F)F)c2[C@H]2C[C@@H]1c1nc3ccc(-c4ccc(P(C)(C)=O)c(F)c4)cc3n12 [Example 24, (7R,14R)-1-(difluoromethoxy)-11-(4-(dimethylphosphoryl)-3-fluorophenyl)-6-(methyl-d3)-6,7-dihydro-7,14-methanobenzo[f]benzo[4,5]imidazo[1,2-a][1,4]diazocin-5(14H)-one]
< 100	CP(C)(=O)c1ccc(-c2ccc3nc4n(c3c2)[C@@H]2C[C@H]4NC(=O)c3cccc(OC(F)F)c32)c(Cl)c1 [Example 41, (1R,11R)-5-[2-chloro-4-(dimethylphosphoryl)phenyl]-18-(difluoromethoxy)-2,9,12-triazapentacyclo[9.8.1.0^{2,10}.0^{3,8}.0^{14,19}]icosa-3(8),4,6,9,14(19),15,17-heptaen-13-one]
< 100	CN1C(=O)c2cccc(OC(F)F)c2[C@H]2C[C@@H]1c1nc3ccc(-c4ccc(OCP(C)(C)=O)c(F)c4)cc3n12 [Example 18, (1R,11R)-18-(difluoromethoxy)-5-{4-[(dimethylphosphoryl)methoxy]-3-fluorophenyl}-12-methyl-2,9,12-triazapentacyclo[9.8.1.0^{2,10}.0^{3,8}.0^{14,19}]icosa-3(8),4,6,9,14(19),15,17-heptaen-13-one]
< 100	CN1C(=O)c2cccc(OC(F)F)c2[C@H]2C[C@@H]1c1nc3ccc(-c4ccc(P(C)(C)=O)cc4F)cc3n12 [Example 28, (1R,11R)-18-(difluoromethoxy)-5-[4-(dimethylphosphoryl)-2-fluorophenyl]-12-methyl-2,9,12-triazapentacyclo[9.8.1.0^{2,10}.0^{3,8}.0^{14,19}]icosa-3(8),4,6,9,14(19),15,17-heptaen-13-one]
100 to 1000	CP(C)(=O)Cc1cc(F)c(-c2ccc3nc4n(c3c2)[C@@H]2C[C@H]4NC(=O)c3cccc(OC(F)F)c32)cc1F [Example 82, (7R,14R)-1-(difluoromethoxy)-11-(4-((dimethylphosphoryl)methyl)-2,5-difluorophenyl)-6,7-dihydro-7,14-methanobenzo[f]benzo[4,5]imidazo[1,2-a][1,4]diazocin-5(14H)-one]
< 100	CN1C(=O)c2cccc(OC(F)F)c2[C@H]2C[C@@H]1c1nc3ccc(-c4cnc(OCP(C)(C)=O)c(F)c4)cc3n12 [Example 10, (1R,11R)-18-(difluoromethoxy)-5-{6-[(dimethylphosphoryl)methoxy]-5-fluoropyridin-3-yl}-12-methyl-2,9,12-triazapentacyclo [9.8.1.0^{2,10}.0^{3,8}.0^{14,19}]icosa-3(8),4,6,9,14(19),15,17-heptaen-13-one]
< 100	[2H]C([2H])([2H])N1C(=O)c2cccc(OC(F)F)c2[C@H]2C[C@@H]1c1nc3ccc(-c4cc(F)c(C(C)P(C)(C)=O)c(F)c4)cc3n12 (single isomer, unassigned) [Example 109, (7R,14R)-1-(difluoromethoxy)-11-(4-((R or S)-1-(dimethylphosphoryl)ethyl)-3,5-difluorophenyl)-6-(methyl-d3)-6,7-dihydro-7,14-methanobenzo[f]benzo[4,5]imidazo[1,2-a][1,4]diazocin-5(14H)-one]
